In PubChem BioAssay (NCI):
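Each compound was tested at five concentrations against cells in 96-well plates for 48 hours. The concentration for 50% growth inhibition is given as GI50. TGI marks complete inhibition of growth.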

Columns and labels:
Experiment in all cases: NCI tumour cell line growth inhibition, 48 h
NCI-H226 lung = tested on: NCI-H226 lung
SR leukemia = tested on: SR leukemia
SK-MEL-28 melanoma = tested on: SK-MEL-28 melanoma
KM20L2 colon = tested on: KM20L2 colon
NCI-H522 lung = tested on: NCI-H522 lung
OVCAR-5 ovarian = tested on: OVCAR-5 ovarian
CAKI-1 renal = tested on: CAKI-1 renal
DLD-1 colon = tested on: DLD-1 colon
UO-31 renal = tested on: UO-31 renal
UACC-62 melanoma = tested on: UACC-62 melanoma
SNB-75 CNS = tested on: SNB-75 CNS
OVCAR-8 ovarian = tested on: OVCAR-8 ovarian
HT29 colon = tested on: HT29 colon
HCT-15 colon = tested on: HCT-15 colon
MALME-3M melanoma = tested on: MALME-3M melanoma
SNB-19 CNS = tested on: SNB-19 CNS
NCI-H460 lung = tested on: NCI-H460 lung
MCF7 breast = tested on: MCF7 breast
HL-60(TB) leukemia = tested on: HL-60(TB) leukemia
SK-MEL-2 melanoma = tested on: SK-MEL-2 melanoma
A498 renal = tested on: A498 renal
HCT-116 colon = tested on: HCT-116 colon
PC-3 prostate = tested on: PC-3 prostate
KM12 colon = tested on: KM12 colon
ACHN renal = tested on: ACHN renal
SW-620 colon = tested on: SW-620 colon
HOP-92 NSCLC = tested on: HOP-92 NSCLC
EKVX NSCLC = tested on: EKVX NSCLC
HOP-62 NSCLC = tested on: HOP-62 NSCLC
SF-539 CNS = tested on: SF-539 CNS
SK-MEL-5 melanoma = tested on: SK-MEL-5 melanoma
K-562 leukemia = tested on: K-562 leukemia
BT-549 breast = tested on: BT-549 breast
U251 CNS = tested on: U251 CNS
MDA-MB-231 breast = tested on: MDA-MB-231 breast
MDA-N = tested on: MDA-N
M14 melanoma = tested on: M14 melanoma
SN12C renal = tested on: SN12C renal
T-47D breast = tested on: T-47D breast
RXF 393 renal = tested on: RXF 393 renal
TK-10 renal = tested on: TK-10 renal
SF-295 CNS = tested on: SF-295 CNS
COLO 205 colon = tested on: COLO 205 colon
SF-268 CNS = tested on: SF-268 CNS
SK-OV-3 ovarian = tested on: SK-OV-3 ovarian
786-0 renal = tested on: 786-0 renal
CCRF-CEM leukemia = tested on: CCRF-CEM leukemia
MOLT-4 leukemia = tested on: MOLT-4 leukemia
LOX IMVI melanoma = tested on: LOX IMVI melanoma
HS 578T breast = tested on: HS 578T breast
RPMI-8226 leukemia = tested on: RPMI-8226 leukemia
MDA-MB-435 = tested on: MDA-MB-435
A549 NSCLC = tested on: A549 NSCLC
HCC-2998 colon = tested on: HCC-2998 colon
OVCAR-4 ovarian = tested on: OVCAR-4 ovarian
NCI/ADR-RES ovarian = tested on: NCI/ADR-RES ovarian
UACC-257 melanoma = tested on: UACC-257 melanoma
IGROV1 ovarian = tested on: IGROV1 ovarian
NCI-H23 lung = tested on: NCI-H23 lung
DU-145 prostate = tested on: DU-145 prostate
OVCAR-3 ovarian = tested on: OVCAR-3 ovarian
M19-MEL melanoma = tested on: M19-MEL melanoma
DMS 273 small cell lung = tested on: DMS 273 small cell lung
SNB-78 CNS = tested on: SNB-78 CNS

O=C([O-])C([O-])C([O-])C(=O)[O-].[Co+3].c1ccc(-c2ccnc3c2ccc2c(-c4ccccc4)ccnc23)cc1.c1ccc(-c2ccnc3c2ccc2c(-c4ccccc4)ccnc23)cc1.c1ccc(-c2ccnc3c2ccc2c(-c4ccccc4)ccnc23)cc1
TGI (NCI-H226 lung): 0.27 µM
TGI (SR leukemia): 0.207 µM
TGI (SK-MEL-28 melanoma): 1.96 µM
TGI (KM20L2 colon): 0.291 µM
TGI (NCI-H522 lung): 0.128 µM
TGI (OVCAR-5 ovarian): 1.65 µM
GI50 (CAKI-1 renal): 0.0339 µM
TGI (CAKI-1 renal): 0.235 µM
TGI (DLD-1 colon): 1.6 µM
TGI (UO-31 renal): 0.0823 µM
TGI (UACC-62 melanoma): 0.407 µM
TGI (SNB-75 CNS): > 100 µM

CC(C)(C)c1cc(C(C)(C)C)c(SC2OC(CO)C(O)C(O)C2O)c(O)c1O (configuration not stated)
TGI (OVCAR-8 ovarian): 27.7 µM
TGI (HT29 colon): 24.5 µM
TGI (HCT-15 colon): 18.8 µM
TGI (MALME-3M melanoma): 26.9 µM
TGI (SNB-19 CNS): 24.5 µM
TGI (NCI-H460 lung): 10.5 µM
TGI (MCF7 breast): > 34.2 µM
TGI (HL-60(TB) leukemia): 14.5 µM
TGI (SK-MEL-2 melanoma): 25 µM
TGI (NCI-H226 lung): 36.7 µM
TGI (A498 renal): 34.8 µM
TGI (HCT-116 colon): 29.1 µM
TGI (PC-3 prostate): 28.3 µM
TGI (KM12 colon): 20.8 µM
TGI (ACHN renal): 22.8 µM
TGI (SW-620 colon): 49.9 µM
TGI (SR leukemia): > 53 µM
TGI (HOP-92 NSCLC): > 42.6 µM
TGI (EKVX NSCLC): > 53.3 µM
TGI (SK-MEL-28 melanoma): 70.5 µM
TGI (HOP-62 NSCLC): 33.9 µM
TGI (SF-539 CNS): 12.7 µM
TGI (SK-MEL-5 melanoma): 18.6 µM
TGI (K-562 leukemia): > 39.8 µM
TGI (BT-549 breast): 27 µM
TGI (U251 CNS): 20.3 µM
TGI (MDA-MB-231 breast): 50.9 µM
TGI (MDA-N): 15.8 µM
TGI (M14 melanoma): > 100 µM
TGI (SN12C renal): 25.8 µM
TGI (T-47D breast): 72.4 µM
TGI (RXF 393 renal): 14.1 µM
TGI (TK-10 renal): 46.3 µM
TGI (SF-295 CNS): 28.3 µM
TGI (COLO 205 colon): > 81.4 µM
TGI (SF-268 CNS): 20.4 µM
TGI (SK-OV-3 ovarian): 32.9 µM
TGI (786-0 renal): 30.4 µM
TGI (NCI-H522 lung): 20.9 µM
TGI (CCRF-CEM leukemia): > 34.7 µM
TGI (OVCAR-5 ovarian): 32.1 µM
TGI (CAKI-1 renal): > 84.9 µM
TGI (MOLT-4 leukemia): > 100 µM
TGI (UO-31 renal): 79.2 µM
TGI (UACC-62 melanoma): 4.99 µM
TGI (LOX IMVI melanoma): 22.9 µM
TGI (HS 578T breast): 11.6 µM
TGI (SNB-75 CNS): 6.05 µM
TGI (RPMI-8226 leukemia): 76.1 µM
TGI (MDA-MB-435): 21 µM
TGI (A549 NSCLC): 21.3 µM
TGI (HCC-2998 colon): 18.2 µM
TGI (OVCAR-4 ovarian): > 61.9 µM
TGI (NCI/ADR-RES ovarian): 34.3 µM
TGI (UACC-257 melanoma): > 72.6 µM
TGI (IGROV1 ovarian): 43.4 µM
TGI (NCI-H23 lung): 17.9 µM
TGI (DU-145 prostate): 31.8 µM
TGI (OVCAR-3 ovarian): 28.4 µM

C/C(CC(O)(C(F)(F)F)C(F)(F)F)=N\O
TGI (OVCAR-8 ovarian): > 10 µM
TGI (HT29 colon): > 10 µM
TGI (HCT-15 colon): > 10 µM
TGI (MALME-3M melanoma): > 10 µM
TGI (SNB-19 CNS): > 10 µM
TGI (NCI-H460 lung): > 10 µM
TGI (MCF7 breast): > 10 µM
TGI (HL-60(TB) leukemia): > 10 µM
TGI (SK-MEL-2 melanoma): > 10 µM
TGI (NCI-H226 lung): > 10 µM
TGI (A498 renal): > 10 µM
TGI (HCT-116 colon): > 10 µM
TGI (PC-3 prostate): > 10 µM
TGI (KM12 colon): > 10 µM
TGI (ACHN renal): > 10 µM
TGI (SW-620 colon): > 10 µM
TGI (SR leukemia): > 10 µM
TGI (HOP-92 NSCLC): > 10 µM
TGI (EKVX NSCLC): > 10 µM
TGI (SK-MEL-28 melanoma): > 10 µM
TGI (HOP-62 NSCLC): > 10 µM
TGI (SF-539 CNS): > 10 µM
TGI (SK-MEL-5 melanoma): > 10 µM
TGI (K-562 leukemia): > 10 µM
TGI (BT-549 breast): > 10 µM
TGI (U251 CNS): > 10 µM
TGI (MDA-MB-231 breast): > 10 µM
TGI (MDA-N): > 10 µM
TGI (M14 melanoma): > 10 µM
TGI (SN12C renal): > 10 µM
TGI (T-47D breast): > 10 µM
TGI (RXF 393 renal): > 10 µM
TGI (TK-10 renal): > 10 µM
TGI (SF-295 CNS): > 10 µM
TGI (COLO 205 colon): > 10 µM
TGI (SF-268 CNS): > 10 µM
TGI (SK-OV-3 ovarian): > 10 µM
TGI (786-0 renal): > 10 µM
TGI (NCI-H522 lung): > 10 µM
TGI (CCRF-CEM leukemia): > 10 µM
TGI (OVCAR-5 ovarian): > 10 µM
TGI (CAKI-1 renal): > 10 µM
TGI (MOLT-4 leukemia): > 10 µM
TGI (UACC-62 melanoma): > 10 µM
TGI (LOX IMVI melanoma): > 10 µM
TGI (HS 578T breast): > 10 µM
TGI (SNB-75 CNS): > 10 µM
TGI (RPMI-8226 leukemia): > 10 µM
TGI (MDA-MB-435): > 10 µM
TGI (A549 NSCLC): > 10 µM
TGI (HCC-2998 colon): > 10 µM
TGI (OVCAR-4 ovarian): > 10 µM
TGI (NCI/ADR-RES ovarian): > 10 µM
TGI (UACC-257 melanoma): > 10 µM
TGI (IGROV1 ovarian): > 10 µM
TGI (NCI-H23 lung): > 10 µM
TGI (DU-145 prostate): > 10 µM
TGI (OVCAR-3 ovarian): > 10 µM

CCSc1c2ccccc2nc2c(OC)ccc(OC)c12
TGI (OVCAR-8 ovarian): 44.9 µM
TGI (HT29 colon): 63.4 µM
TGI (SNB-19 CNS): 72.4 µM
TGI (NCI-H460 lung): 41.7 µM
TGI (HL-60(TB) leukemia): 52.9 µM
TGI (NCI-H226 lung): 55.7 µM
TGI (A498 renal): 81.7 µM
TGI (HCT-116 colon): 37.9 µM
TGI (KM12 colon): 63.5 µM
TGI (SR leukemia): 62.5 µM
TGI (HOP-92 NSCLC): 56.5 µM
TGI (EKVX NSCLC): > 100 µM
TGI (SK-MEL-28 melanoma): 40 µM
TGI (HOP-62 NSCLC): 97.2 µM
TGI (U251 CNS): 44.9 µM
TGI (M14 melanoma): 95.8 µM
TGI (RXF 393 renal): 33.2 µM
TGI (TK-10 renal): 85 µM
TGI (SF-295 CNS): 66.2 µM
TGI (SF-268 CNS): 55.6 µM
TGI (SK-OV-3 ovarian): 63.2 µM
TGI (NCI-H522 lung): > 100 µM
TGI (CCRF-CEM leukemia): > 100 µM
TGI (OVCAR-5 ovarian): 97.1 µM
TGI (MOLT-4 leukemia): 73 µM
TGI (M19-MEL melanoma): 37.1 µM
TGI (UO-31 renal): 59.8 µM
TGI (DMS 273 small cell lung): 47.9 µM
TGI (UACC-62 melanoma): 37.9 µM
TGI (A549 NSCLC): > 100 µM
TGI (UACC-257 melanoma): 42.8 µM
TGI (SNB-78 CNS): 56.7 µM
TGI (IGROV1 ovarian): 63.4 µM
